The subject of the experiment is Rat sympathetic neurons. Kind of experiment: NGF withdrawal in compartmented cultures of sympathetic neurons. In kind it is cell-based. How it is done:
A) Rat sympathetic neurons grown in compartmented cultures for one week in the presence of NGF were switched into the indicated conditions for 48 h and immunostained for βIII-tubulin (white). Schematics on the left show the configurations used. In the top panels, NGF was maintained in all compartments. In the center and bottom panels, NGF was withdrawn from all compartments. At the bottom panel and 500 nM foretinib (Foret) added to one of the sides and the center compartment. Fluorescence images show βIII-tubulin-positive axons in the sides compartment. At the right, enlarged images of the axons per condition. While the NGF deprived neurons degenerated (axonal beading and degradation in the central panel), Foretinib supplemented (lower panel) axons kept growing Red arrow at the top of the image indicates the distance of the axonal extension during 48 h since NGF withdrawal. Size bar: […].B) MNs were differentiated from healthy human iPS (Line ID 1016A)^62 as described^63. 3 day old MNs were treated with either 1 μM of Thapsigargin (Thaps) or 1 μM Tunicamycin (Tuni) and/or with either 0.5 uM of Foretinib. […] C) Quantitative representation of the results as in B. Error bars represent standard error; *p<0.05; ***p<0.005; t-test. […] E) Quantitative representation of changes in mouse body weight in dependence of the indicated IP daily doses of Foretinib. […]

SMILES strings stand for the structures. Entries after “also recorded” stand apart in the source; their conditions may differ.

With `COc1cc2c(Oc3ccc(NC(=O)C4(C(=O)Nc5ccc(F)cc5)CC4)cc3F)ccnc2cc1OCCCN1CCOCC1` [Foretinib, N1-[3-Fluoro-4-({6-methoxy-7-[3-(morpholin-4-yl)propoxy]quinolin-4-yl}oxy)phenyl]-N′1-(4-fluorophenyl)cyclopropane-1,1-dicarboxamide], under “500 nM foretinib in center and one side compartment, 48 h, preliminary n=2”, the “axonal growth after NGF withdrawal” value is recorded as “induced axonal growth, similarly to the NGF containing cultures; also recorded: greater axonal length of the neurons than neurons cultured with NGF”. The “cell body and axonal survival after NGF withdrawal” value (500 nM foretinib, 48 hours post NGF withdrawal) is “supported cell bodies and axonal survival”.

Values taken from patent US20250281496A1, “METHODS OF TREATING NEUROPATHY USING FORETINIB AND COMPOSITIONS THEREOF” (INDIANA UNIVERSITY RESEARCH AND TECHNOLOGY CORPORATION, priority 2022, published 2025).
